In brackets after ≈: the same amount, converted by molar mass. Bounds are passed on as bounds.

The test system of series [1] is pancreatic cancer cell of PANC-1. In words: Growth inhibition of PANC-1 (MTT). Type of series: cell-based.
Series [2] relates to pancreatic cancer cell of CAPAN-2. In words: Growth inhibition of CAPAN-2 (MTT). In kind it is cell-based. As to conditions: CAPAN-2.
The test system of series [3] is colon cancer cell of SNU-C1. In words: Growth inhibition of SNU-C1 (MTT). Type of series: cell-based.
Series [4] has as its system rectal cancer cell of CMT-93. Put plainly: Growth inhibition of CMT-93 (MTT). In kind it is cell-based. The protocol: (§1) In the present experiment, the inhibitory activity of the compound of formula (1) was determined against the growth of K562 cancer cell. First, the cells were allowed to stand in RPMI (Roswell Park Memorial Institute)-1640 medium containing 10% (v/v) fetal bovine serum in an incubator of 37° C. and 5% by volume of CO2. The cancer cells (1000 cells) were transferred to a 96-well plate, and the test compound was diluted. The plate was allowed to stand under the above mentioned conditions for 2 days. After this treatment, to the cells was added 0.2% MTT (3-[4,5-dimethylthiazol-2-yl]-2,5-diphenyltetrazolium bromide) solution, and the resulting mixture was allowed to stand under the constant temperature-condition for 4 hours. The supernatant was removed to leave the resulting crystal. DMSO was added to dissolve the crystal, and the absorbance of the solution was measured at 540 nm. IC50 value was calculated using a computer system according to the following formula: […]
(§2) The test was performed according to the same procedure as Experiment 1.

In series [5] the test system is cervical cancer cell of HeLa229. Put plainly: Growth inhibition of HeLa 229 (MTT). In kind it is cell-based.
Series [6] relates to encephalophyma cell of A172. In words: Growth inhibition of A172 (MTT). Type of series: cell-based. The protocol:
as §1, §2

In series [7] the test system is bladder cancer cell of HT-1197. In words: Growth inhibition of HT-1197 (MTT). In kind it is cell-based. As for the experimental part: as §1, §2
Series [8] concerns K562 cancer cell (CML cell line). Put plainly: Growth inhibition of K562 cancer cell (MTT). Type of series: cell-based. Particulars: Homo sapiens, K562, 48 h, K562, 2 days, MTT; read-out: IC50. The protocol:
In the present experiment, the inhibitory activity of the compound of formula (1) was determined against the growth of K562 cancer cell. First, the cells were allowed to stand in RPMI (Roswell Park Memorial Institute)-1640 medium containing 10% (v/v) fetal bovine serum in an incubator of 37° C. and 5% by volume of CO2. The cancer cells (1000 cells) were transferred to a 96-well plate, and the test compound was diluted. The plate was allowed to stand under the above mentioned conditions for 2 days. […] The supernatant was removed to leave the resulting crystal.

Series [9] has as its system L1210 cancer cell (leukemia cell line). Put plainly: Growth inhibition of L1210 cancer cell (MTT). In kind it is cell-based. As to conditions: Mus musculus. The protocol: as §1
In the present experiment, the inhibitory activity of the compound of formula (1) was determined against the growth of L1210 cancer cell. The test was performed according to the same procedure as Experiment 1.

Series [10] concerns U937 cancer cell (monocyte like leukemia cell line). In words: Growth inhibition of U937 cancer cell (MTT). Type of series: cell-based. As for the experimental part: as §1
In the present experiment, the inhibitory activity of the compound of formula (1) was determined against the growth of U937 cancer cell. The test was performed according to the same procedure as Experiment 1.

A further series has as its system lung cancer cell (A549). In words: Growth inhibition of A549 (MTT). In kind it is cell-based. As to conditions: Homo sapiens. As for the experimental part: as §1, §2
Series [11] has as its system gastric cancer cell (KATO III). Put plainly: Growth inhibition of KATO III (MTT). Type of series: cell-based. As to conditions: Homo sapiens. The protocol: as §1, §2
In series [12] the test system is oral epithelial cancer cell (KB). In words: Growth inhibition of KB (MTT). In kind it is cell-based. Particulars: Homo sapiens. The protocol:
as §1, §2

For series [13], the system named is hematologic malignancy cell (HL-60). In words: Growth inhibition of HL-60 (MTT). In kind it is cell-based. As to conditions: Homo sapiens.
The subject of series [14] is ovarian cancer cell (SK-OV-03). Put plainly: Growth inhibition of SK-OV-03 (MTT). In kind it is cell-based. The protocol: as §1, §2
Series [15] concerns breast cancer cell (MCF-7). In words: Growth inhibition of MCF-7 (MTT). Type of series: cell-based. Particulars: Homo sapiens, MCF7. As for the experimental part:
as §1, §2

In series [16] the test system is prostatic cancer cell (DU-145). Put plainly: Growth inhibition of DU-145 (MTT). In kind it is cell-based. As to conditions: Homo sapiens. As for the experimental part:
as §1, §2

Series [17] has as its system acute myelogenous leukemia cell (KG-1). Put plainly: Growth inhibition of KG-1 (MTT). Type of series: cell-based.
The subject of series [18] is lymphoma cell (RPMI-6666). In words: Growth inhibition of RPMI-6666 (MTT). Type of series: cell-based. The protocol: as §1, §2
A further series deals with hepatoma cell (SNU-182). Put plainly: Growth inhibition of SNU-182 (MTT). Type of series: cell-based. Particulars: Homo sapiens. As for the experimental part:
as §1, §2

Series [19] can be described thus: Comparative pharmacokinetic test in white rats. In kind it is in vivo, white rats (Sprague-Dawley). Particulars: male, Sprague-Dawley, plasma, po, rat, 50 mg/kg, P.O. As for the experimental part: On the previous day to the test, white rats (Sprague-Dawley, 250˜280 g, male) were put under anesthesia by pentobarbital sodium (50 mg/kg, I.P.). Then, cannula (polyethylene tube; diameter: 0.58mm) was introduced into the rats via the carotid artery and jugular vein, and drawn out to the back. After the operation, the rats were fasted for 16 hours and used for the test. […] Blood was collected in 0, 0.5, 1, 1.5, 2, 2.5, 3, 3.5, 4, 4.5, 5, 6, 8, 10, 12, and 24 hours from the carotid artery. The samples for HPLC analysis were prepared using the collected blood according to the following procedure and were analyzed under the following conditions.
Blood was collected by an amount of 0.5 ml at each prearranged time and centrifuged at 15000 rpm for 7 minutes to separate […] of plasma. In order to remove proteins, MeOH was added in an amount of […], twice as much as the amount of plasma, and the mixture was shaken for 30 minutes. The mixture was centrifuged again at 15000 rpm for 5 minutes to give protein free supernatant, which was then analyzed by HPLC.
Flow rate: 1.0 ml/min, UV detection at 267 nm
Column: 4.6×150 mm, 5C18-AR-II, COSMOSIL
Eluent: Mixture of ion pair sample (420 ml) and MeOH (580 ml)
Ion pair sample: 7.5 g of 1-octanesulfonic acid was dissolved in 800 ml of water. The resulting mixture was adjusted to pH 2.5 using phosphoric acid and diluted with water to 1000 ml volume.
Here, the pharmacokinetic parameters are Tmax (time to reach the maximum blood concentration), Cmax (maximum blood concentration), AUC (area under the curve of time-blood concentration), and T1/2 (half time in blood), and the AUC was calculated under trapezoid rule (see Tables 6, 7 and FIGS. 1, 2).

The nature of series [20]: Acute toxicity test in mice (oral administration). As to conditions: both sexes, ICR, mouse, in vivo, 2000 mg/kg; mice, oral. As for the experimental part:
(§3) In order to determine the acute toxicity of the compound of the present invention when the compound is orally administered, mice (ICR, 24˜26 g) were fasted for 16 hours. One group consists of 10 males and 10 females. The first group is the control group and physiological saline was administered per oral to this group. The compounds of Examples 2 and 4 were orally administered in a dosage of 2000 mg/kg, the maximum dosage in acute toxicity test, to each test group. […] On the last day of the test, 14th day from the start, the mice were subjected to an autopsy in order to examine changes of the internal organs. […] This means that the compounds of the present invention including those of Examples 2 and 4 are safe in the aspect of acute toxicity.

The next series has as its system mice (ICR). Put plainly: Acute toxicity test in mice (oral administration). As to conditions: mouse, in vivo, po, 2000 mg/kg. As for the experimental part:
as §3

Broadly, the IC50 is the concentration needed to halve the response being measured. Consider `N.N.[Cl][Pt][Cl]` [Cisplatin, cisplatin, reference compound], for which the IC50 amounted to 41.55 µg/mL in series [1]; 496.9 µg/mL in series [2]; 302 µg/mL in [3]; 0.67 µg/mL in series [4]; 0.9 µg/mL in series [5]; 5.7 µg/mL in series [6]. In addition, in series [7], the IC50 stood at 7.5 µg/mL.
The Cmax is the maximum level reached in the sampled fluid or tissue. For orientation: Tmax means the time from dosing to the highest level. For orientation: AUC means the area under the concentration-time curve, a measure of exposure. The LD50 is the dose expected to kill half of the subjects tested. Low values mean a more toxic substance, high ones a less toxic substance. Take `CS(=O)(=O)O.Cc1ccc(NC(=O)c2ccc(CN3CCCN(C)CC3)cc2)cc1Nc1nccc(-c2cccnc2)n1` [Example 2, 4-(4-methylhomopiperazin-1-ylmethyl)-N-[4-methyl-3-(4-(pyridin-3-yl)pyrimidin-2-yl)aminophenyl]benzamide methanesulfonate]: the IC50 in [8] came to 1.2 µg/mL; in series [9], 7.6 µg/mL; in series [10] (Homo sapiens, U-937) it was 0.7 µg/mL; in the series with lung cancer cell (A549), 27.6 µg/mL; in [11], 30 µg/mL; in [12], 31.6 µg/mL. For the same molecule, the IC50 in [13] was 17.7 µg/mL; in [14] it was 38 µg/mL; in series [15], 36.2 µg/mL; in series [16], 30.3 µg/mL; in series [17] (Homo sapiens), 7.31 µg/mL; in [18] (Homo sapiens) it was 14.7 µg/mL. This molecule returned an IC50 in the series with hepatoma cell (SNU-182) of 24.7 µg/mL. In addition, the “Improved activity versus Imatinib mesylate” value in [10] is reported as 40 times. Besides, the “IC50 as fraction of that of Imatinib mesylate” value is listed as “¼” in [17] and “½” in [18]. This molecule also gave a Cmax in series [19] of 2200 ng/mL. In addition, the Tmax in series [19] was 1.5 h. The AUC in series [19] (trapezoid rule) came to 26200 ng·h/mL. Besides, in series [20], the LD50 at 14 days is no less than 2000 mg/kg. Also, the “Clinical conditions and autopsy” value in the series with mice (ICR) is given as “neither abnormal response nor specific autopsy result was observed”. The “Mortality during the test period” value with mice (ICR) is on record as “no mouse died”.
Consider `O=c1[nH]cc(F)c(=O)[nH]1` [Example 5-FU, 5-Fu, reference compound], for which the IC50 in [1] is 553.8 µg/mL (≈ 4260 µM); in series [2] it was 1000> μg/ml; in [3], 95.3 µg/mL (≈ 733 µM); in series [4], 1.1 µg/mL (≈ 8.46 µM); in series [5] it was 81.03 µg/mL (≈ 623 µM); in [6], 99 µg/mL (≈ 761 µM). Further, the IC50 in series [7] was 98.5 µg/mL (≈ 757 µM).

For the origin of these results see patent US20040248918A1, “N-phenyl-2-pyrimidine-amine derivatives and process for the preparation thereof” (IL YANG PHARM. CO., LTD., priority 2003, published 2004).
